Data as given in article PMC6733907, “Structural basis for activation of a diguanylate cyclase required for bacterial predation in Bdellovibrio” (Nature Communications, 2019).
Several values for one entry are separate records, joined by “and”; a condition that tells them apart may be missing. Equal values may be shown once.

Tests used:
DgcB (full-length) = target: T1, DgcB (full-length) (Bdellovibrio bacteriovorus, UniProt Q6MPU8); assay: X-ray crystal structure, […] Å, co-purified ligand; type: binding; settings: I-site (RxxD: R218, D221) of both monomers; two c-di-GMP per dimer; product, feedback inhibitor
T1 construct: gene Bd0742; full-length aa 1-310 (own numbering), C-terminal thrombin-cleavable 8xHis tag, E. coli BL21 lambda DE3; dimer with c-di-GMP
T1 sequence (Q6MPU8 11-320): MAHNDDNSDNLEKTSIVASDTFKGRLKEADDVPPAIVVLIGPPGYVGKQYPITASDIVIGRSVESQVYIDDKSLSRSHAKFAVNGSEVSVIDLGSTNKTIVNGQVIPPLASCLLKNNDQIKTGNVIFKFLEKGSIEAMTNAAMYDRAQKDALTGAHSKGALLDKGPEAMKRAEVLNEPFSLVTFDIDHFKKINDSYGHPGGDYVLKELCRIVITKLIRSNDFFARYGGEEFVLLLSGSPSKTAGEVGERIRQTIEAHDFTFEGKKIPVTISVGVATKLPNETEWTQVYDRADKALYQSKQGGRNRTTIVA

[1] = target: T2, GGDEF-only construct of DgcB (Bdellovibrio bacteriovorus, UniProt Q6MPU8); assay: co-purification of c-di-GMP with the protein; type: binding; settings: I-site
T2 construct: gene Bd0742; GGDEF domain only, aa 148-310 (own numbering), C-terminal thrombin-cleavable 8xHis tag, E. coli BL21 lambda DE3
T2 sequence (Q6MPU8 158-320): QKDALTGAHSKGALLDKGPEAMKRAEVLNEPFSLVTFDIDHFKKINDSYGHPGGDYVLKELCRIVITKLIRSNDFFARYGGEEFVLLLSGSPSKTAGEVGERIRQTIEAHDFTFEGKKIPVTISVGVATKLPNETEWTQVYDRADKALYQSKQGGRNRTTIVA

[2] = target: DgcB S15C-S73C-R218A (disulphide-stapled double cysteine mutant), full length (Bdellovibrio bacteriovorus HD100); assay: SEC; non-reducing gel-filtration (buffer without DTT) after overnight incubation with 5 mM oxidised glutathione, sample at 50 mg/ml; sizes calibrated to known standards

Row | stoichiometry N [2] | Compound | X-ray crystal structure, 1.79 Å, co-purified ligand (DgcB (full-length)) | co-purification of c-di-GMP with the protein [1]
1 |  | Nc1nc2c(ncn2[C@@H]2O[C@@H]3COP(=O)(O)O[C@H]4[C@@H](O)[C@H](n5cnc6c(=O)[nH]c(N)nc65)O[C@@H]4COP(=O)(O)O[C@H]3[C@H]2O)c(=O)[nH]1 [c-di-GMP] | The dimer is stabilized by two molecules of c-di-GMP (classically intercalating via their planar bases) | the GGDEF-only construct purifies with a small amount of c-di-GMP at the I-site
2 | 4 and 2 | DgcB S15C-S73C-R218A (disulphide-stapled double cysteine mutant), full length (enzyme) |  | 
